# Reference: a melting point compilation (Tetko et al.)
row,Compound,melting point
1,O=C(CCl)Oc1ccccc1,44.5 °C
2,Cc1nc2cc(Cl)ccc2o1,54 to 57 °C
3,N#Cc1ccccc1S(=O)(=O)Cl,69 to 70 °C
4,O=C1NC(=S)NC(=O)C1=Cc1ccc(-c2ccc(Cl)cc2)o1,280 °C
5,N#Cc1ccc2nonc2c1,86 to 88 °C
6,Cc1ccnc2c1ccc1cccnc12,145 °C
7,CCc1cccc(CC)c1N,3.5 °C
8,O=[N+]([O-])c1cccc(-c2noc(CCl)n2)c1,60 to 62 °C
9,N#Cc1cccc(Cn2cncn2)c1,91 to 92 °C
10,C1=NCC(c2ccc(C3CN=CC=N3)cc2)N=C1 (stereo not given),262 °C
11,Cc1ccc2c(C)c(C)ccc2c1,14 °C
12,CNc1cccc2ccccc12,174 °C
13,OC1COC(Oc2ccc3cc(Br)ccc3c2)C(O)C1O (stereo not given),190 to 196 °C
14,NC(=NO)c1cnccc1C(F)(F)F,183 to 185 °C
15,Cc1ccc(C(=O)Cl)o1,29 °C
16,Cc1nc(C)c(C)nc1C,85 °C
17,CC1(C)OC2CC(=O)OCC23C1CC(=O)C1(C)C3CCC2(C)C(c3ccoc3)OC(=O)C3OC321 (stereo not given),298 °C
18,N#Cc1ccncc1Cl,72.5 °C
19,Brc1ccc2nccnc2c1,54 to 55 °C
20,O=C1NC(=O)C(=NO)C(=O)N1,236 to 242 °C
21,CC(N)C(O)c1ccccc1 (stereo not given),192 °C
22,CC(C)(C)c1ccc2c(c1)C(=O)c1ccccc1C2=O,99 °C
23,O=C1NCCCN1,265 °C
24,COc1ccc2[nH]cc(CCN(C)C)c2c1,69.5 °C
25,c1ccc2c(c1)CCc1ccccc1CC2,109 °C
26,Clc1ncccc1-c1cccc(Br)n1,140 °C
27,O=CNC(Nc1ccc(Cl)c(Cl)c1)C(Cl)(Cl)Cl (stereo not given),135 °C

row,Compound,melting point
1,CC12CCC3C(CCC4CCCCC43C)C1CCC2O (stereo not given),166 °C
2,Oc1c(Br)cc(Br)cc1-c1cc(Br)cc(Br)c1O,205 °C
3,CC1(C)O[C@@H]2[C@H](O1)[C@@H]1C[C@H]2NC1=O,150 to 152 °C
4,CCP(CC)CC,-88 °C
5,O=C1C(c2ccccc2)=C(c2ccccc2)c2ccccc21,151 to 155 °C
6,Nc1cnccc1I,61 °C
7,Cc1ccc(-c2csc(/C(C#N)=N\Nc3cccc(C)c3)n2)cc1,132 °C
8,C#CC1(O)CCC2C3CC=C4CC(O)CCC4(C)C3CCC21C (stereo not given),248 °C
9,ClCc1nnc(-c2ccc3ccccc3c2)o1,128 to 130 °C
10,c1ccc2c(c1)ccc1nc3ccc4ccccc4c3cc12,216 °C
11,O=C1C=CC(=O)N1c1cccc(N2C(=O)C=CC2=O)c1,198 to 204 °C
12,FCCCl,-50 °C
13,O=[N+]([O-])c1ccc(-c2csc3nc4ccccc4n23)cc1,232 to 235 °C
14,Nc1ccc(Br)cc1F,40 °C
15,S=C=Nc1ccc(OCc2ccccc2)cc1,64 °C
16,O=c1c2ccccc2c(=O)n2n1C1C=CC2C1,231 °C
17,CCCCc1ccc(O)cc1,22 °C
18,Cc1nc(-c2ccc(Br)s2)no1,54 to 55 °C
19,Cn1ccnc1,-6 °C
20,Oc1c2ccccc2cc2ccccc12,152 °C
21,O=[N+]([O-])c1c[nH]cn1,303 °C
22,CC(CCl)OC(C)CCl (stereo not given),-97 °C
23,O=C1CCOc2ccc(Cl)cc21,102 °C
24,FC(F)(F)c1cccc(C(c2ccccc2)(c2ccccc2)n2cncn2)c1,132 °C
25,ClCC1C(CCl)C2(Cl)C(Cl)=C(Cl)C1(Cl)C2(Cl)Cl (stereo not given),105 °C
26,CCOO,-100 °C

# Now from value to compound:
row,melting point,Compound
1,249 to 250 °C,COc1ccc(C=Nn2c(C)cc(C)c(C#N)c2=O)cc1
2,55 °C,COc1c(F)cc(Br)cc1[N+](=O)[O-]
3,33.5 °C,CCCCCCCC/C=C\CCCCCCCCCCCC(=O)O
4,14 °C,C=C(C)CCCCCCCCCCCCCCCC
5,120 to 123 °C,CC12CCC(O)CC1CCC1C2CCC2(C)C1CCC2(O)C#Cc1ccccc1 (stereo not given)
6,188 to 191 °C,O=C(O)c1ccc2c(c1)OCCOCCOCCOCCO2
7,150 °C,CCOc1cc(OCC)c(C(=O)CCC(=O)O)cc1OCC
8,91 °C,COC(=O)C1CCC(C)(C(O)(c2ccccc2)c2ccccc2)OC1(C)C (stereo not given)
9,128 to 130 °C,OCCN1CCN(c2nc3ccc(Cl)cc3s2)CC1
10,52 °C,COc1ccc(C(C)=O)c(F)c1
11,189 °C,COC1(OC)c2ccccc2C(O)(c2ccccc2)c2ccccc21
12,97 °C,C=CC(C)(O)CCC1C(C)(O)CCC2C(C)(C)CCCC21C (stereo not given)
13,273 °C,CC1=NC(C)CNc2c1c(=O)n(-c1ccccc1)c1ccccc21 (stereo not given)
14,168 °C,CC1=C(C)S(=O)(=O)CCS1(=O)=O
15,151 to 155 °C,O=C1OC(CO)C(O)C(O)C1O (stereo not given)
16,171 to 172 °C,Cc1nnc2sc(SCc3ccccc3)nn2c1=O
17,192 °C,O=C(O)/C(=C\c1ccccc1)c1ccccc1[N+](=O)[O-]
18,196 °C,COc1cccc(C2C(C(=O)OC(C)C)=C(C)NC(C)=C2C(=O)OC(C)C)c1O
19,184 °C,CC(=O)C(=NNc1cccc([N+](=O)[O-])c1)C(C)=O
20,156 to 158 °C,CC(C)(C)OC(=O)N1CCN(C(=O)OCC2c3ccccc3-c3ccccc32)CC1C(=O)O (stereo not given)
21,76 °C,COc1ccc(OC)c(C(=O)CCCCC(=O)O)c1
22,201 °C,Cc1ccc(C(=O)C2=NOC3C(=O)N(c4ccc(C(=O)O)cc4)C(=O)C23)cc1 (stereo not given)
23,-73 °C,CCCC(=O)OC(=O)CCC
24,67.2 °C,C=CCCCCCCCCCCCCCCCCC1CC(=O)OC1=O (stereo not given)
25,41.6 °C,CCCCCCCCCCCCCCCCCCC1CCCCC1
26,211 °C,Cc1ccc(C(=O)c2nn3c(nc(=O)c4ccccc43)s2)cc1

row,melting point,Compound
1,8 °C,CCCCCC(O)CCCC (stereo not given)
2,94 to 96 °C,COc1cc(Br)c(CC(=O)O)cc1OC
3,107 °C,Brc1cnc(N2CCCC2)nc1OCc1ccccc1
4,-15 °C,CCCCCCCCCCCCCC(C)CC (stereo not given)
5,181 °C,CCOc1ccc(NC(=O)C(C(F)(F)F)C(F)(F)F)cc1
6,178 °C,CCOC(=O)C=Cc1ccc(C=CC(=O)OCC)c(N)c1
7,169 °C,NNC(=S)Nc1ccc(Cl)cc1Cl
8,171 °C,CCN1CCN(C(=O)N[C@@H](C(=O)O)c2ccccc2)C(=O)C1=O
9,140 to 142 °C,O=C(Oc1c(F)c(F)c(F)c(F)c1F)c1ccc(-c2cccs2)nc1
10,161 °C,CCOC(=O)CCC(C)C1CCC2C3C(=O)CC4CC(O)CCC4(C)C3CC(O)C12C (stereo not given)
11,68 to 70 °C,O=C(O)c1cccc2c1OCCCO2
12,217 to 218 °C,NN=C(/C(=N/N)c1ccccc1)c1cccc2ccccc12
13,-196 °C,CCN(C)CC
14,194 °C,O=C(O)COc1cccc(OCC(=O)O)c1
15,135 to 136 °C,Cc1cc(C)n2nc(SCc3ccccc3)nc2n1
16,50 °C,CCCCCCCCCCCCCCCCCCCC(=O)OCC
17,183 to 184 °C,Cc1cc(C)nc(NNC=Cc2ccc([N+](=O)[O-])cc2)n1
18,35 to 38 °C,COC(=O)c1cc(S(=O)(=O)Cl)oc1C
19,177 °C,COc1ccc(C(C(=O)NCc2ccccc2)N(Cc2ccc(C)o2)C(=O)CNC(=O)OC(C)(C)C)cc1OC (stereo not given)
20,99 to 100 °C,COc1ccccc1C(O)=C1C(=O)CN(C(C)C)C1=O
21,204 to 205 °C,COC(=O)c1cnc(SCC(=O)NC(=O)Nc2ccccc2)n1C
22,107 to 109 °C,Cc1ccc(C(N)=O)cc1C
23,74 to 76 °C,Cc1nn(C)c(N2CCOCC2)c1C=O
24,205 °C,N[C@H](CCO)C(=O)O
25,164 °C,COc1ccc(C=C2C(=O)OC(C)(C)OC2=O)cc1OC
26,161 to 164 °C,O=C(O)C=CC(=O)Nc1cccc(C(F)(F)F)c1

row,melting point,Compound
1,180 to 182 °C,Clc1ccc(Cc2c(N=Cc3ccccc3)n[nH]c2N=Cc2ccccc2)cc1
2,31 to 33 °C,CS(=O)(=O)CCO
3,71 to 72 °C,Cn1cc(Br)c(C=O)n1
4,273 to 275 °C,CC(CC(N)C(=O)O)C(F)(F)F (racemic)
5,272 °C,CC(=O)Nc1cccc(N=Nc2cccc(NC(C)=O)c2)c1
6,26 °C,Cc1cc(F)ccc1CC#N
7,83 to 84 °C,O=[N+]([O-])c1cccc2c(/C=N\c3ccccc3)cccc12
8,57 °C,O=Cc1cccc(C(F)(F)F)c1O
9,98 °C,OCc1nc2ccccc2s1
10,60 °C,CC(=NO)c1ccccc1
11,123 to 124 °C,COC(=O)CCC(C)C1CCC2C3C(=O)C(Br)C4CCCCC4(C)C3CCC12C (stereo not given)
12,167 °C,O=Cc1cc(O)ccc1[N+](=O)[O-]
13,144 °C,CCC(CCC(C)C1CCC2C3=CC=C4CC(O)CCC4(C)C3CCC21C)C(C)C (stereo not given)
14,26 °C,CCC(=O)c1cc(F)cc(F)c1
15,194 to 196 °C,NC(=O)C1CCN(c2nccc(C(F)(F)F)n2)CC1
16,193 °C,Cc1cc(C(=O)O)cc(Cl)n1
17,219 to 226 °C,O=C(c1ccc2c(c1)C(=O)OC2=O)c1ccc2c(c1)C(=O)OC2=O
18,256 to 258 °C,CC(=O)N[C@@H](CCCCN)C(=O)O
19,198 °C,O=C(Nc1ccc([N+](=O)[O-])cc1)c1ccccc1
20,48 to 49 °C,Cc1cccc(CS(=O)(=O)Cl)c1
21,124 °C,NC(=O)C1CC1
22,196 °C,COc1ccccc1C1Nn2c(nnc2-c2ccccc2)S1 (stereo not given)
23,119 to 121 °C,COc1ccc(C(N)=NO)cc1
24,106 °C,CC12CCC(C(=CC(=O)O)C1=O)C2(C)C (stereo not given)
25,76 °C,O=C(C(C(F)(F)F)C(F)(F)F)N(Cc1ccccc1)Cc1ccccc1
